Laboratory results published in patent US12691101B2, “Compound and method for preventing or treating of respiratory diseases comprising the same as an active ingredient” (YONSEI UNIVERSITY, UNIVERSITY - INDUSTRY FOUNDATION (UIF), priority 2019, dated 2026).

Tests used:
SLC26A7 = target: T1, SLC26A7 (Homo sapiens, UniProt Q8TE54); experiment: Cl^−/HCO3^− exchange in CHO-K1 cells expressing SLC26A7; format: cell-based
T1 construct: expressed in transfected cells; host or cells: CHO-K1
Description: (§1) (A) The inhibition of mouse pendrin (mPDS)-mediated Cl^−/I^− exchange activity by F56 was measured in CHO-K1 cells (mean±S.E., n=5). The indicated concentration of F56 was pretreated for 10 minutes. (B) Summary of dose-response for inhibition of the human pendrin (hPDS)-mediated (closed circle, FIG. (a), C) and mPDS-mediated (open circle) Cl^−/I^− exchange activity. (C-F) Representative traces of intracellular pH in CHO-K1 cells expressing SLC26A3, SLC26A6, SLC26A7 and SLC26A9 were shown. The application of Cl^− free solution induced intracellular alkalization by Cl^−/HCO3^− exchange. The indicated concentration of F56 was pretreated for 10 minutes. (G) the effect of F56 (100 μM) on the CFTR chloride channel activity was measured in FRT cells expressing human CFTR. The CFTR current was activated by 20 μM forskolin and was inhibited by 10 μM CFTRinh-172. (H) The effect of F56 (100 μM) on the AN01 chloride channel activity was measured in FRT cells expressing human AN01. Before 10 minutes prior to AN01 activation by 100 μM ATP, F56 was added. (Right) Peak current summary (mean±S.E., n=3). (I) The effect of F56 on the hERG (Kv11.1) potassium channel activity was measured in HEK293T cells expressing human Kv11.1 (mean±S.E., n=4). […] (J) The effect of F56 on the 5-HT2A channel activity was measured in FRT cells expressing human 5-HT2A (mean±S.E., n=4). […]

human 5-HT2A = target: T2, human 5-HT2A (Homo sapiens, UniProt P28223); experiment: 5-HT2A activity in FRT cells; format: cell-based; details: pretreated 10 minutes
T2 construct: expressed in transfected cells; host or cells: FRT cells co-expressing ANO1(abc) and YFP-F46L/H148Q/I152L
Description: as §1

SCN^− transport = experiment: Epithelial SCN^− transport in IL-4-treated HNE cells; format: cell-based, human; details: 30 μM, 30 minutes
Description: Nasal epithelial cells were plated on a transwell permeable supporter and cultured in ALI (air-liquid interface) for 14 days. After completely differentiated epithelial cells were cultured with IL-4 (Invitrogen, 10 ng/mL) for 48 hours, F56 (30 μM) or vehicle was added for 30 minutes. The transwell insert having cells was washed with PBS and the basal side was treated with 1 mL PBS containing 10 mM glucose and 5 μCi S^14CN (total concentration SCN^−: 86 μM). The apical side of the transwell was filled with 0.5 mL PBS containing 5 μM amiloride to block epithelial sodium. Subsequently, the apical fluid was collected every 5 minutes and placed in scintillation vials for evaluation of radioactivity.

HNE cells = experiment: ASL and fluid meniscus volume measurement in HNE cells; format: cell-based, human
Description: The total volume of ASL and fluid meniscus, which is fluid with the cell culture insert wall, was measured by fluid absorption through filter paper. Whatman filter paper (10 mm diameter circle; GE Healthcare) was placed on the apical size of a 12-well transwell insert (Costar Co.) for 10 seconds. The absorption of the ASL and fluid meniscus was measured from the weight change of the filter paper. The weight of the filter paper was measured using an analysis scale (Sartorius BP61S; Sartorius AG, Gottingen, Germany).

Serum T3 and T4 in mice = format: in vivo, mouse; details: 10 mg/kg/day for 1 week
Description: The negative effect of F56 was examined by i.p administering of F56 10 mg/kg to female balb/c mice every 24 hours for 7 days. In 24 hours after the last administration, the hearing of mice was measured and serum was obtained. According to the manufacturer's protocol, the total serum level of triiodothyronine (T3) or thyroxine (T4) using a mouse ELISA kit (Calbiotech, T3043T-100 or T4044T-100).

tracheal smooth muscle = experiment: Tracheal contraction in rat tracheal ring; details: 30 μM after carbachol-induced contraction
Description: All experiments were performed using 4-week-old SD male rats. The experimental protocol was approved by the Animal Ethics Committee of Yonsei University. The rats were sacrificed and tracheal strips were separated. After the connective tissue was separated, the organ was cut into 3 mm long rings. The organ was mounted for tension recording under 1 g tension and equilibrated for 1 hour in an organ bath containing 25 mL of oxygenated physiological solution. The solution was gassed successively with 95% 02 and 5% CO2 at 37° C. After 1 hours of stabilization, 0.3 μM carbachol (CCh) was used to induce a sustained contraction reaction in the organ bath. Once the sustained tension was established, F56 (30 μM) and forskolin (10 μM) and IBMX (100 μM) were applied to the bath. The organ contraction was measured using FORT 10G converter (World Precision Instruments, Sarasota, FL, USA) and PowerLab 4/35 (AD Instruments, Castle Hill, Australia). Data were recorded and analyzed using Labchart Pro 7 (AD Instruments).

T1 sequence (Q8TE54 whole entry, species assumed): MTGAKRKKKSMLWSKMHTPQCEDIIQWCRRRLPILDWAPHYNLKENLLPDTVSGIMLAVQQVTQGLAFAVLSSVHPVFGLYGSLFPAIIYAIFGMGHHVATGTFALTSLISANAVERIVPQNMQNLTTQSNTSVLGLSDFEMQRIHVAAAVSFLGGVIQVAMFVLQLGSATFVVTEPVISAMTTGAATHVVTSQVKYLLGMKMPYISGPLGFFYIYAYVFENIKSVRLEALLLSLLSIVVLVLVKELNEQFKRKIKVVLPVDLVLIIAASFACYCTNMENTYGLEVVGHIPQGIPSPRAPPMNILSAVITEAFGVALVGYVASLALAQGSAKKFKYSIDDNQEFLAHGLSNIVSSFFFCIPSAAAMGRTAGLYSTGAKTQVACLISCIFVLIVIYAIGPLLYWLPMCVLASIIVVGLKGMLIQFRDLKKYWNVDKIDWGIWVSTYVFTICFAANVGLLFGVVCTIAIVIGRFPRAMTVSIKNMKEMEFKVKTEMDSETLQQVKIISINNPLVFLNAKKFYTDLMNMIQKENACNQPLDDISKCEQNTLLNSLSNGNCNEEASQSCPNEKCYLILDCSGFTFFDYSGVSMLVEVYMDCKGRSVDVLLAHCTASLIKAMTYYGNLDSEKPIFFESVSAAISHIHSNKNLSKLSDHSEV

CC(C)(C)c1ccc(C2=NC(=Cc3cccs3)C(=O)O2)cc1 [F56, 2-(4-(tert-butyl)phenyl)-4-(thiophen-2-ylmethylene)oxazol-5(4H)-one]
effect on SLC26A7 Cl^−/HCO3^− exchange (SLC26A7): did not affect
effect on 5-HT2A activity (human 5-HT2A): not affected
SCN^− concentration on the apical surface (SCN^− transport): inhibited
total volume of ASL and fluid meniscus (HNE cells; IL-4-treated HNE cells expressing a mutant pendrin): not changed
total volume of ASL and fluid meniscus (HNE cells; IL-4 and IL-13-treated HNE cells expressing wild-type pendrin): hardly reduced
T3 and T4 plasma level (Serum T3 and T4 in mice): not changed
effect on tracheal smooth muscle (tracheal smooth muscle): did not affect
